According to patent US11661422B2, “Tricyclic urea compounds as JAK2 V617F inhibitors” (Incyte Corporation, priority 2020, dated 2023):
Structures can show the parent of a compound that is named as a salt.

Assays:
[1] = molecular target: pseudo-kinase domain (JH2, amino-acids 536-812) of human V617F mutant JAK2 (Homo sapiens (Human), UniProt O60674, F794H/V617F/W659A/W777A); assay: JAK2 LanthaScreen JH2-V617F Binding Assay; conditions: JAK2 JH2-V617F 0.26 nM, 50 nM fluorescent tracer, 1 hour at 25° C.; read-out: JH2 BIND V617F IC50
Sequence of pseudo-kinase domain (JH2, amino-acids 536-812) of human V617F mutant JAK2 (O60674 536-812 V617F/W659A/W777A/F794H): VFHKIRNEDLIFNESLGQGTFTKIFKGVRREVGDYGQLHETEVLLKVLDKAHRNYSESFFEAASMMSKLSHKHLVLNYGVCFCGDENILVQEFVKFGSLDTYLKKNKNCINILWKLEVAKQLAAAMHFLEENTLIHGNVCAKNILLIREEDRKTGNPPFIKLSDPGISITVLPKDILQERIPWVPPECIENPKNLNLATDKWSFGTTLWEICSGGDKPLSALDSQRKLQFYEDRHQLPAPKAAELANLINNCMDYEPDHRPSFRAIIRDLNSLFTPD
Protocol: The assay was conducted in black 384-well polystyrene plates in a final reaction volume of 20 μL. […] Non-specific binding was accessed in the presence of 2 mM ATP. After incubation for 1 hour at 25° C., LanthaScreen signals were read on a PHERAstar FS plate reader (BMG LABTECH). Data was analyzed with IDBS XLfit and GraphPad Prism 5.0 software using a four parameter dose response curve to determine IC50 for each compound.

[2] = molecular target: pseudo-kinase domain (JH2, amino-acids 536-812) of human Wild Type JAK2 (Homo sapiens (Human), UniProt O60674, F794H/W659A/W777A); assay: JAK2 LanthaScreen JH2-WT Binding Assay; conditions: JAK2 JH2-WT 0.145 nM, 50 nM fluorescent tracer, 1 hour at 25° C.; read-out: JH2 BIND WT IC50
Sequence of pseudo-kinase domain (JH2, amino-acids 536-812) of human Wild Type JAK2 (O60674 536-812 W659A/W777A/F794H): as the sequence (O60674 536-812 V617F/W659A/W777A/F794H) above, with F82V counted along it
Protocol: Example B. JAK2 LanthaScreen JH2-WT Binding Assay
(§1) The assay was conducted in black 384-well polystyrene plates in a final reaction volume of 20 μL. JAK2 JH2-WT (0.145 nM) was incubated with compounds (100 nL serially diluted in DMSO) in the presence of 50 nM Fluorescent JAK2-JH2 Tracer (MedChem Express Catalog #HY-102055) and 0.25 nM Streptavidin-Tb cryptate (Cisbio Part #610SATLB) in assay buffer (50 mM Tris, pH=7.5, 10 mM MgCl2, 0.01% Brij-35, 0.1% BSA, 1 mM EGTA, 5% Glycerol and 5 mM DTT). Non-specific binding was accessed in the presence of 2 mM ATP. After incubation for 1 hour at 25° C., LanthaScreen signals were read on a PHERAstar FS plate reader (BMG LABTECH). Data was analyzed with IDBS XLfit and GraphPad Prism 5.0 software using a four parameter dose response curve to determine IC50 for each compound.

[3] = molecular target: catalytic domain (JH1, amino acids 826-1132) of human JAK2 (Homo sapiens (Human), UniProt O60674); assay: JAK2 LanthaScreen JH1 Binding Assay; conditions: JAK2 JH1 1.5 nM, 50 nM fluorescent tracer, 2 hours at 25° C.; read-out: JH1 BIND IC50
Sequence of catalytic domain (JH1, amino acids 826-1132) of human JAK2 (O60674 826-1132): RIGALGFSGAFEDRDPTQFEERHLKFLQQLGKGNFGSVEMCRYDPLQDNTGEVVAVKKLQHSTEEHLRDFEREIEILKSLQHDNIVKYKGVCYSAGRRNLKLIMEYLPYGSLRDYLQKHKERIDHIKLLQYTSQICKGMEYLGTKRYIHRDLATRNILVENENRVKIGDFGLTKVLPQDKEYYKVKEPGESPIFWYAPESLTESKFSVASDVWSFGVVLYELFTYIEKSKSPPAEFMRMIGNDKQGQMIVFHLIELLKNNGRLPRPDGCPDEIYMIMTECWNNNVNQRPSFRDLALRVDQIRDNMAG
Protocol: Example A. JAK2 LanthaScreen JH1 Binding Assay
as §1, with “JAK2 JH1 binding assay utilizes catalytic domain (JH1, amino acids 826-1132) of human JAK2 expressed as N-terminal FLAG-tagged, biotinylated protein in a baculovirus expression system (Carna Biosciences, Product #08-445-20N). The” for “The”, “JH1 (1.5” for “JH2-WT (0.145”, “JAK2-JH1” for “JAK2-JH2”, “Tracer” for “Tracer (MedChem Express Catalog #HY-102055)”, “0.5” for “0.25”, “2 hours” for “1 hour”

[4] = molecular target: catalytic domain (JH1, amino acids 808-1132) of human JAK2 (Homo sapiens (Human), UniProt O60674); assay: JAK2 HTRF Enzyme Activity Assay; type: biochemical; conditions: JAK2 0.015 nM, ATP (30 μM or 1 mM), 60 minutes at 25° C.
Sequence of catalytic domain (JH1, amino acids 808-1132) of human JAK2 (O60674 808-1132): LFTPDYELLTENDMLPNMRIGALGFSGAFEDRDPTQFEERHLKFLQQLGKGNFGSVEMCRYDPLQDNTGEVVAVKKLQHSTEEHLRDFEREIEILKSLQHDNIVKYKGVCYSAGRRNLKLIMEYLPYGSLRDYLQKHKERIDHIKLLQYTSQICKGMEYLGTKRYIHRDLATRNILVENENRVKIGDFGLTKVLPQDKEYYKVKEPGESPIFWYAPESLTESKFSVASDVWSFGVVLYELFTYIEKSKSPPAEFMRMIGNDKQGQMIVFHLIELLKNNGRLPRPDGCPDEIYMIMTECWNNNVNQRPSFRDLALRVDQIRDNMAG
Protocol: Example D. JAK2 HTRF Enzyme Activity Assay
JAK2 enzyme activity assays utilize catalytic domain (JH1, amino acids 808-1132) of human JAK2 expressed as N-terminal His-tagged protein in a baculovirus expression system (BPS Bioscience, Catalog #40450). The assays was conducted in black 384-well polystyrene plates in a final reaction volume of 20 μL. JAK2 (0.015 nM) was incubated with compounds (100 nL serially diluted in DMSO) in the presence of ATP (30 μM or 1 mM) and 500 nM Biotin-labeled […] (SEQ ID NO.: 1) peptide (BioSource International, custom synthesis) in assay buffer (50 mM Tris, pH=7.5, 10 mM MgCl2, 0.01% Brij-35, 0.1% BSA, 1 mM EGTA, 5% Glycerol and 5 mM DTT) for 60 minutes at 25° C. The reactions were stopped by the addition of 10 μL of detection buffer (50 mM Tris, pH 7.8, 0.5 mg/mL BSA, 150 mM NaCl), supplemented with EDTA, LANCE Eu-W1024 anti-phosphotyrosine (PY20), (PerkinElmer, Catalog #AD0067) and Streptavidin SureLight APC (PerkinElmer Catalog #CR130-100), for a final concentration of 15 mM, 1.5 nM and 75 nM, respectively. HTRF signals were read after 30 minutes incubation at room temperature on a PHERAstar FS plate reader (BMG LABTECH). Data was analyzed with IDBS XLfit and GraphPad Prism 5.0 software using a four parameter dose response curve to determine IC50 for each compound.

Structure (SMILES)	IC50 [1]	IC50 [2]	IC50 [3]	IC50 [4]
CN1C(=O)N(C(C)(C)C)Cc2c1cnc1[nH]c(-c3ccc(CN4CCC(S(C)(=O)=O)CC4)cc3)c(-c3ccc(C(=O)NCC4(C#N)CC4)cc3)c21 [Example 14, 4-(2-(tert-Butyl)-4-methyl-8-(4-((4-(methylsulfonyl)piperidin-1-yl)methyl)phenyl)-3-oxo-2,3,4,7-tetrahydro-1H-pyrrolo[3′,2′:5,6]pyrido[3,4-d]pyrimidin-9-yl)-N-((1-cyanocyclopropyl)methyl)benzamide Trifluoroacetic Acid]	≤ 100 nM	≤ 100 nM	≤ 100 nM	≤ 100 nM
COC(=O)c1c(-c2ccc(CN3CCC(S(C)(=O)=O)CC3)cc2)[nH]c2ncc3c(c12)CN(c1ccc(C(=O)O)cc1)C(=O)N3C [Example 15, 4-(9-(Methoxycarbonyl)-4-methyl-8-(4-((4-(methylsulfonyl)piperidin-1-yl)methyl)phenyl)-3-oxo-1,3,4,7-tetrahydro-2H-pyrrolo[3′,2′:5,6]pyrido[3,4-d]pyrimidin-2-yl)benzoic acid Trifluoroacetic Acid Salt]	100 to 500 nM	100 to 500 nM	> 2500 nM	> 2500 nM
CC(=O)NCc1ccc(-c2c(-c3ccc(CN4CCC(S(C)(=O)=O)CC4)cc3)[nH]c3ncc4c(c23)CN(C(C)(C)C)C(=O)N4C)cc1 [Example 16, N-(4-(2-(tert-Butyl)-4-methyl-8-(4-((4-(methylsulfonyl)piperidin-1-yl)methyl)phenyl)-3-oxo-2,3,4,7-tetrahydro-1H-pyrrolo[3′,2′:5,6]pyrido[3,4-d]pyrimidin-9-yl)benzyl)acetamide]	≤ 100 nM	≤ 100 nM	≤ 100 nM	≤ 100 nM
CNS(=O)(=O)c1ccc(-c2c(-c3ccc(CN4CCC(S(C)(=O)=O)CC4)cc3)[nH]c3ncc4c(c23)CN(C(C)(C)C)C(=O)N4C)cc1 [Example 17, 4-(2-(tert-Butyl)-4-methyl-8-(4-((4-(methylsulfonyl)piperidin-1-yl)methyl)phenyl)-3-oxo-2,3,4,7-tetrahydro-1H-pyrrolo[3′,2′:5,6]pyrido[3,4-d]pyrimidin-9-yl)-N-methylbenzenesulfonamide, trifluoroacetic acid salt]	≤ 100 nM	≤ 100 nM	≤ 100 nM	≤ 100 nM
CC(=O)N1CCN(c2ccc(-c3c(-c4ccc(CN5CCC(S(C)(=O)=O)CC5)cc4)[nH]c4ncc5c(c34)CN(C(C)(C)C)C(=O)N5C)cc2)CC1 [Example 18, 9-(4-(4-Acetylpiperazin-1-yl)phenyl)-2-(tert-butyl)-4-methyl-8-(4-((4-(methylsulfonyl)piperidin-1-yl)methyl)phenyl)-1,2,4,7-tetrahydro-3H-pyrrolo[3′,2′:5,6]pyrido[3,4-d]pyrimidin-3-one, trifluoroacetic acid salt]	≤ 100 nM	≤ 100 nM	≤ 100 nM	≤ 100 nM
CC(=O)N1CC=C(c2c(-c3ccc(CN4CCC(S(C)(=O)=O)CC4)cc3)[nH]c3ncc4c(c23)CN(c2ccc(C(=O)O)cc2)C(=O)N4C)CC1 [Example 20, 4-(9-(1-Acetyl-1,2,3,6-tetrahydropyridin-4-yl)-4-methyl-8-(4-((4-(methylsulfonyl)piperidin-1-yl)methyl)phenyl)-3-oxo-1,3,4,7-tetrahydro-2H-pyrrolo[3′,2′:5,6]pyrido[3,4-d]pyrimidin-2-yl)benzoic acid Trifluoroacetic Acid Salt]	≤ 100 nM	≤ 100 nM	> 2500 nM	> 2500 nM
CN1C(=O)N(c2ccc(C(=O)O)cc2)Cc2c1cnc1[nH]c(-c3ccc(CN4CCC(S(C)(=O)=O)CC4)cc3)c(-c3ccc(C4(N)CC4)cc3)c21 [Example 21, 4-(9-(4-(1-Aminocyclopropyl)phenyl)-4-methyl-8-(4-((4-(methylsulfonyl)piperidin-1-yl)methyl)phenyl)-3-oxo-1,3,4,7-tetrahydro-2H-pyrrolo[3′,2′:5,6]pyrido[3,4-d]pyrimidin-2-yl)benzoic acid trifluoroacetic acid salt (1:2)]	≤ 100 nM	≤ 100 nM	1000 to 2500 nM	> 2500 nM
